The target of data set [1] is T1, human mGluR2 (hmGluR2) transiently over-expressed in HEK-293 cells (Homo sapiens, UniProt Q14416).
T1 construct: expressed in transfected cells; host or cells: HEK-293 cells, transient co-transfection by electroporation
Briefly: Human mGluR2 negative allosteric modulator evaluation using Ca++ functional assay (agonist and NAM activity). It is filed as cell-based. The note with it: hmGluR2 in HEK-293 cells, EC80 glutamate, Fluo4AM calcium readout; read-out: mGluR2 negative allosteric modulator activity IC50. Here is the method: Human mGluR2 Negative Allosteric Modulator Evaluation Using Ca^++ Functional Assay
Compounds of the present invention were tested successively for their agonist and negative allosteric modulator activities on human mGluR2 (hmGluR2) transiently over-expressed in HEK-293 cells. They exert agonist activity if they are able to activate mGluR2 by themselves, i.e., in absence of the endogenous agonist glutamate; and they exert negative allosteric modulator activity if they decrease the action of the endogenous agonist glutamate.
HEK-293 cells were maintained in Modified Eagle's Medium supplemented with 10% Foetal Calf Serum, 1% Penicillin/Streptomycin and 1% nonessential amino acids at 37° C./5% CO2.
Cells were plated after transfection onto polyornithine coated, clear bottom, black-walled, 96-well plates and cultured for 24 h.
Receptor activity was detected by changes in intracellular calcium measured using the fluorescent Ca^2+ sensitive dye, Fluo4AM (Molecular Probes).
The day of the assay, medium was aspirated and replaced during 3 hours by medium without serum supplemented with 1% Glutamax, 1% Penicillin/Streptomycin and 1% nonessential amino acids. Then, cells were washed with freshly prepared buffer B (HBSS 1× (PAA), Hepes 20 mM, MgSO4-7H2O 1 mM, Na2CO3 3.3 mM, CaCl2-2H2O 1.3 mM, 0.5% BSA, Probenecid 2.5 mM) and loaded at 37° C./5% CO2 for 1.5 hours with buffer B containing 1 μM Fluo4AM, 0.1 mg/mL Pluronic Acid, 7 μg/mL Glutamate Pyruvate Transaminase and 2 mM sodium pyruvate. Afterwards cells were washed twice with buffer B and 50 μL of this buffer were added to each well.
Agonist and negative allosteric modulator activities of compounds were consecutively evaluated on the same cells plate. […] Then, the cells were stimulated by an EC80 glutamate concentration and fluorescence was recorded for additional 60 s. EC80 glutamate concentration is the concentration giving 80% of the maximal glutamate response. Agonist and/or negative allosteric modulator activity(ies) were evaluated in comparison to basal signal or signal evoked by EC80 glutamate alone, respectively.
For potency determination, a dose-response test was performed using 8 concentrations of each compound of the invention. Dose-response curves were fitted using the sigmoidal dose-response (variable slope) analysis in GraphPad Prism program (Graph Pad Inc) and EC50 of agonist/IC50 of negative allosteric modulator activity was calculated. Dose-response experiments were all performed in duplicate, two times independently.

Some results are limits rather than exact numbers.

T1 sequence (Q14416 19-872): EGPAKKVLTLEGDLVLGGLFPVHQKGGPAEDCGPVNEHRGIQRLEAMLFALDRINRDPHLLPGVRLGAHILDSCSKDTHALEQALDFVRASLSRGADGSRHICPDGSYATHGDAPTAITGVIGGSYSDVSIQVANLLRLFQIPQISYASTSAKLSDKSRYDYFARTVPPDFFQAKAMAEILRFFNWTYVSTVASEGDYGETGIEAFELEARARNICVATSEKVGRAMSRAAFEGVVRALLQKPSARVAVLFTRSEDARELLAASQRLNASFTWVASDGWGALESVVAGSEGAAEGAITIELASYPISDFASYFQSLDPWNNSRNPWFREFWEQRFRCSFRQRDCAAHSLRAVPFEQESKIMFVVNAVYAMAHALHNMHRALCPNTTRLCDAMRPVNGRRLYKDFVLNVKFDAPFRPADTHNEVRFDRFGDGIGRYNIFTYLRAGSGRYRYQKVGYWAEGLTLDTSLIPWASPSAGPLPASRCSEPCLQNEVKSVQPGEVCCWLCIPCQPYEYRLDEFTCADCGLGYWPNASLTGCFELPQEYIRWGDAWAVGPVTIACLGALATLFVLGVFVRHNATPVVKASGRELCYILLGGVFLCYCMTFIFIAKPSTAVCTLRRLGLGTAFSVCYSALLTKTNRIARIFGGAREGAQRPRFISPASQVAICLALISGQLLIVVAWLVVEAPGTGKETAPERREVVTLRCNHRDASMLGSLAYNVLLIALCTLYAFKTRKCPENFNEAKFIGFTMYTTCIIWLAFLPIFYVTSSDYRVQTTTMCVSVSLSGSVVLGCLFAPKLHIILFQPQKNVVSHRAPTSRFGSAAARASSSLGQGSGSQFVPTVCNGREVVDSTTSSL

`Cc1cc(-c2ccc3c(=O)n(C)c4cc(C5CCCCCC5)nn4c3c2)cc(C)n1.Cl` [Example 77, 2-Cycloheptyl-8-(2,6-dimethyl-pyridin-4-yl)-4-methyl-4H-pyrazolo[1,5-a]quinazolin-5-one]: the melting point (as a rule, the temperature, or range, at which the solid turns liquid) is above 250 °C. Further, the half-maximal inhibitory concentration (IC50) – broadly, the point on the concentration scale where inhibition reaches its midpoint – in data set [1] is below 1 µM.

In turn, `Cc1n[nH]cc1-c1ccc2c(=O)n(C)c3cc(C4CCCCC4)nn3c2c1` [Example 75, 2-Cyclohexyl-4-methyl-8-(3-methyl-1H-pyrazol-4-yl)-4H-pyrazolo[1,5-a]quinazolin-5-one] showed a melting point above 250 °C. Besides, the IC50 in data set [1] was below 1 µM.

In turn, `Cl.Nc1ccc(-c2ccc3c(=O)n(CC(F)(F)F)c4cc(-c5ccccc5)nn4c3c2)cn1` [Example 45, 8-(6-Amino-pyridin-3-yl)-2-phenyl-4-(2,2,2-trifluoro-ethyl)-4H-pyrazolo[1,5-a]quinazolin-5-one] gave a melting point of 227 to 230 °C. Further, the IC50 in data set [1] was below 1 µM.

`CCc1nc(N)ccc1-c1ccc2c(=O)n(C)c3cc(-c4ccccc4)nn3c2c1.Cl` [Example 27, 8-(6-Amino-2-ethyl-pyridin-3-yl)-4-methyl-2-phenyl-4H-pyrazolo[1,5-a]quinazolin-5-one] came in with a melting point of 239 to 240 °C. Besides, the IC50 in data set [1] was below 1 µM.

With `Cc1cc(-c2ccc3c(=O)n(C)c4cc(C5CCCOC5)nn4c3c2)cc(C)n1.Cl` (stereo not shown) [Example 108, 8-(2,6-Dimethyl-pyridin-4-yl)-4-methyl-2-(tetrahydro-pyran-3-yl)-4H-pyrazolo[1,5-a]quinazolin-5-one], the melting point lay within 182 to 193 °C. The IC50 in data set [1] is below 1 µM.

Molecule `Cl.Nc1ccc(-c2ccc3c(=O)n(C4CCC4)c4cc(-c5ccccc5)nn4c3c2)cn1` [Example 48, 8-(6-Amino-pyridin-3-yl)-4-cyclobutyl-2-phenyl-4H-pyrazolo[1,5-a]quinazolin-5-one] returned a melting point of 203 to 205 °C. Further, the IC50 in data set [1] is below 1 µM.

In the case of `Cc1cc(-c2ccc3c(=O)n(C)c4cc(-c5cc(C)nc(C)c5)nn4c3c2)cc(C)n1` [Example 114, 2,8-Bis-(2,6-dimethyl-pyridin-4-yl)-4-methyl-4H-pyrazolo[1,5-a]quinazolin-5-one], in data set [1], the IC50 is below 1 µM.

As for `Cc1cc(-c2cc3n(C)c(=O)c4ccc(-c5cc(C)nc(C)c5)cc4n3n2)ccn1` [Example 133, 8-(2,6-Dimethyl-pyridin-4-yl)-4-methyl-2-(2-methyl-pyridin-4-yl)-4H-pyrazolo[1,5-a]quinazolin-5-one], the IC50 in data set [1] was below 1 µM.

Turning to `Cn1c(=O)c2ccc(-c3cccc(S(N)(=O)=O)c3)cc2n2nc(C3CCOCC3)cc12` [Example 100, 3-[4-Methyl-5-oxo-2-(tetrahydro-pyran-4-yl)-4,5-dihydro-pyrazolo[1,5-a]quinazolin-8-yl]-benzenesulfonamide], in data set [1], the half-inhibitory concentration (IC50) was below 1 µM.

For the molecule `Cc1cc(-c2cc3n(C)c(=O)c4ccc(-c5cnccc5C)cc4n3n2)cc(C)n1` [Example 119, 2-(2,6-Dimethyl-pyridin-4-yl)-4-methyl-8-(4-methyl-pyridin-3-yl)-4H-pyrazolo[1,5-a]quinazolin-5-one], the IC50 in data set [1] was below 1 µM.

As to `Cl.[2H]C([2H])([2H])n1c(=O)c2ccc(-c3cc(C)nc(C)c3)cc2n2nc(C3CCCC3)cc12` [Example 68, 2-Cyclopentyl-8-(2,6-dimethyl-pyridin-4-yl)-4-methyl(D3)-4H-pyrazolo[1,5-a]quinazolin-5-one], the IC50 in data set [1] was below 1 µM.

On to `Cc1cc(-c2cc3n(C)c(=O)c4ccc(-c5cccnc5C)cc4n3n2)ccn1` [Example 132, 2-(2-methyl-pyridin-4-yl)-4-methyl-8-(2-methyl-pyridin-3-yl)-4H-pyrazolo[1,5-a]quinazolin-5-one], for which the IC50 in data set [1] was below 1 µM.

For `Cc1cncc(-c2ccc3c(=O)n(C)c4cc(-c5cc(C)nc(C)c5)nn4c3c2)c1` [Example 118, 2-(2,6-Dimethyl-pyridin-4-yl)-4-methyl-8-(5-methyl-pyridin-3-yl)-4H-pyrazolo[1,5-a]quinazolin-5-one], in data set [1], the IC50 was below 1 µM.

Regarding `Cn1c(=O)c2ccc(-c3ccc(N)nc3)cc2n2nc(C(C)(C)C)cc12` [Example 52, 8-(6-Amino-pyridin-3-yl)-2-tert-butyl-4-methyl-4H-pyrazolo[1,5-a]quinazolin-5-one], the IC50 in data set [1] is below 1 µM.

As to `Cc1ccc(-c2ccc3c(=O)n(C)c4cc(-c5cc(C)nc(C)c5)nn4c3c2)cn1` [Example 117, 2-(2,6-Dimethyl-pyridin-4-yl)-4-methyl-8-(6-methyl-pyridin-3-yl)-4H-pyrazolo[1,5-a]quinazolin-5-one], in data set [1], the IC50 is below 1 µM.

In the case of `Cc1cc(-c2ccc3c(=O)n(C)c4cc(C5CCCO5)nn4c3c2)cc(C)n1` (stereo not shown) [Example 107, 8-(2,6-Dimethyl-pyridin-4-yl)-4-methyl-2-(tetrahydro-furan-2-yl)-4H-pyrazolo[1,5-a]quinazolin-5-one], the IC50 in data set [1] is below 1 µM.

As for `Cc1ccc(-c2ccc3c(=O)n(C)c4cc(C5CCOCC5)nn4c3c2)cn1` [Example 95, 4-Methyl-8-(6-methyl-pyridin-3-yl)-2-(tetrahydro-pyran-4-yl)-4H-pyrazolo[1,5-a]quinazolin-5-one], the concentration for half-maximal inhibition (IC50) in data set [1] is below 1 µM.

Regarding `Cc1cc(-c2cc3n(C)c(=O)c4ccc(-c5cccnc5C)cc4n3n2)cc(C)n1` [Example 113, 2-(2,6-Dimethyl-pyridin-4-yl)-4-methyl-8-(2-methyl-pyridin-3-yl)-4H-pyrazolo[1,5-a]quinazolin-5-one], in data set [1], the IC50 was below 1 µM.

As to `Cc1cc(-c2cc3n(C)c(=O)c4ccc(-c5ccc(N)nc5)cc4n3n2)cc(C)n1` [Example 112, 8-(6-Amino-pyridin-3-yl)-2-(2,6-dimethyl-pyridin-4-yl)-4-methyl-4H-pyrazolo[1,5-a]quinazolin-5-one], the IC50 in data set [1] is below 1 µM.

As for `Cc1cc(-c2cc3n(C)c(=O)c4ccc(-c5cccnc5)cc4n3n2)cc(C)n1` [Example 116, 2-(2,6-Dimethyl-pyridin-4-yl)-4-methyl-8-pyridin-3-yl-4H-pyrazolo[1,5-a]quinazolin-5-one], the IC50 in data set [1] was below 1 µM.

As for `Cn1c(=O)c2ccc(-c3ccc(N)nc3)cc2n2nc(C3CCCCCC3)cc12` [Example 76, 8-(6-Amino-pyridin-3-yl)-2-cycloheptyl-4-methyl-4H-pyrazolo[1,5-a]quinazolin-5-one], in data set [1], the IC50 was below 1 µM.

For `Cl.[2H]C([2H])([2H])n1c(=O)c2ccc(-c3ccc(N)nc3)cc2n2nc(C3CCCC3)cc12` [Example 67, 8-(6-Amino-pyridin-3-yl)-2-cyclopentyl-4-methyl(D3)-4H-pyrazolo[1,5-a]quinazolin-5-one], the IC50 in data set [1] was below 1 µM.

For the molecule `Cl.[2H]C([2H])([2H])n1c(=O)c2ccc(-c3ccc(N)nc3)cc2n2nc(CCOC)cc12` [Example 55, 8-(6-Amino-pyridin-3-yl)-2-(2-methoxy-ethyl)-4-methyl(D3)-4H-pyrazolo[1,5-a]quinazolin-5-one], the 50% inhibitory concentration (IC50) in data set [1] is below 1 µM.

As for `CCn1c(=O)c2ccc(-c3cc(C)nc(C)c3)cc2n2nc(C3CCCCCC3)cc12` [Example 78, 2-Cycloheptyl-8-(2,6-dimethyl-pyridin-4-yl)-4-ethyl-4H-pyrazolo[1,5-a]quinazolin-5-one], in data set [1], the IC50 is below 1 µM.

Consider `Cc1cc(-c2ccc3c(=O)n(C)c4cc(C5CCOCC5)nn4c3c2)ccn1` [Example 93, 4-Methyl-8-(2-methyl-pyridin-4-yl)-2-(tetrahydro-pyran-4-yl)-4H-pyrazolo[1,5-a]quinazolin-5-one], for which the half-maximal inhibitory concentration (IC50) in data set [1] was below 1 µM.

The values above are taken from patent publication US9434734B2, “Substituted pyrazoloquinazolinones and pyrroloquinazolinones as allosteric modulators of group II metabotropic glutamate receptors” (Domain Therapeutics, priority 2012, dated 2016).
